Drawing on ChEMBL document CHEMBL1121959, “Probes of the active site of norepinephrine N-methyltransferase: effect of hydrophobic and hydrophilic interactions on side-chain binding of amphetamine and alpha-methylbenzylamine” (J Med Chem, 1982), this text covers Ki for 15 compounds.

Usually pKi stands for the negative decadic logarithm of the Ki, by convention in mol/L. Lower therefore signals a high Ki.

Molecules are shown by their SMILES. pKi: −log10 of the molar value.

For the assay, the target named is T1, Phenylethanolamine N-methyltransferase (Bos taurus, UniProt P10938).
T1 sequence (P10938 whole entry): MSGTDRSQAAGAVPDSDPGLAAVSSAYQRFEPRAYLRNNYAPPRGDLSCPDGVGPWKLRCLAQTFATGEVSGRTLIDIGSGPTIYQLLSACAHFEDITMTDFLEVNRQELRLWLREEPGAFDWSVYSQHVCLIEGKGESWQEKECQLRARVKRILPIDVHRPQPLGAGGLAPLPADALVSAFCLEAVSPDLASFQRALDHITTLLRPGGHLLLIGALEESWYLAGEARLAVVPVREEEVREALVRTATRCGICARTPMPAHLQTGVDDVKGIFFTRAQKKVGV
Nature of the assay: Inhibitory activity against bovine adrenal norepinephrine N-methyl-transferase was determined.
`CCC(N)Cc1ccccc1` (stereo not given) gave a pKi of under 3.00. In the case of `N[C@H](CO)CC1CCCCC1` it was 3.90; in that of `CCCC(N)c1ccccc1` (stereo not given), under 3.00; in that of `N[C@H](CO)Cc1ccccc1` [L-PHENYLALANINOL], 3.18. Take `N[C@@H](CO)CC1CCCCC1`: the negative-log Ki (pKi) was 4.48. The figure for `NC(CO)Cc1ccccc1` (racemic) is 3.41; for `NC(CO)CC1CCCCC1` (racemic) it is 4.33. The compound `C[C@@H](N)Cc1ccccc1` [LEVAMFETAMINE] had a pKi of 2.86. Compound `CCCC(N)Cc1ccccc1` (stereo not given) had a negative-log Ki (pKi) of under 3.00. In turn, `N[C@@H](CO)c1ccccc1` gave a pKi of 4.06. In the case of `N[C@@H](CO)Cc1ccccc1` it was 3.42. The figure for `NC(CC1CCCCC1)c1ccccc1` (stereo not given) is under 3.00. Consider `NC(CO)c1ccccc1` (racemic), for which the pKi is 2.91. Take `C[C@H](N)Cc1ccccc1` [DEXTROAMPHETAMINE]: the pKi is 3.35. In the case of `NC(Cc1ccccc1)Cc1ccccc1` it was under 3.00.
